What all share (type): functional
The subject of test [1] is Helicobacter pylori. Put plainly: Minimum inhibitory concentration against Helicobacter pylori.
Test [2] concerns Helicobacter pylori. Put plainly: Minimum inhibitory concentration against Helicobacter pylori under acidic conditions at pH 5.0.
Test [3] has as its system Helicobacter pylori. Put plainly: Minimum inhibitory concentration against Helicobacter pylori under acidic conditions at pH 7.0.
Test [4] concerns Helicobacter pylori. The test can be described thus: Minimum inhibitory concentration against Helicobacter pylori under acidic conditions at pH 6.0.

The text below walks through data of ChEMBL document CHEMBL1134310, “3-(Arylacetylamino)-N-methylbenzamides: a novel class of selective anti-Helicobacter pylori agents” (2001).

≈ marks a conversion by molar mass, not a printed value.

By MIC is commonly meant the lowest concentration that inhibits growth of the organism.

`CNC(=O)c1cccc(NC(=O)Cc2ccc(Cl)cc2)c1` showed an MIC against Helicobacter pylori [1] of 0.78 µg/mL (≈ 2.58 µM).

The compound `CNC(=O)c1cccc(NC(=O)OCc2ccc3ccccc3c2)c1` showed an MIC against Helicobacter pylori [1] of 0.1 µg/mL (≈ 0.299 µM).

For the compound `CCNC(=O)c1cccc(NC(=O)Cc2cccc(Br)c2)c1`, 3.12 µg/mL (≈ 8.64 µM) was the least that counted as inhibitory in the test on Helicobacter pylori [1] (MIC).

Turning to `CNC(=O)c1cccc(NC(=O)Cc2cccc([N+](=O)[O-])c2)c1`, the lowest concentration to inhibit growth in the test with Helicobacter pylori [1] (MIC) was 3.12 µg/mL (≈ 9.96 µM).

`CNC(=O)c1cccc(NC(=O)Cc2cccc(F)c2)c1` returned an MIC against Helicobacter pylori [1] of 3.12 µg/mL (≈ 10.9 µM).

Regarding `CNC(=O)c1cccc(NC(=O)OCc2ccc(Cl)cc2)c1`, the MIC in the test with Helicobacter pylori [1] came to 0.2 µg/mL (≈ 0.627 µM).

Consider `CNC(=O)c1cccc(NC(=O)Cc2cccc(OC)c2)c1`, for which the MIC against Helicobacter pylori [1] was 0.78 µg/mL (≈ 2.61 µM).

In the test on Helicobacter pylori [1], `CNC(=O)c1cccc(NC(=O)Cc2cccc(C)c2)c1` came in with a minimum inhibitory concentration (MIC) of 0.39 µg/mL (≈ 1.38 µM).

In the test on Helicobacter pylori [1], `CNC(=O)c1cccc(NC(=O)CCc2ccccc2)c1` showed an MIC of 12.5 µg/mL (≈ 44.3 µM).

On to `CNC(=O)c1cccc(NC(=O)Cc2c[nH]c3ccccc23)c1`, for which the MIC against Helicobacter pylori [1] stood at 0.78 µg/mL (≈ 2.54 µM).

On to `CNC(=O)c1cccc(NC(=O)Cc2ccc(Br)cc2)c1`, for which the MIC against Helicobacter pylori [1] turned out to be 0.78 µg/mL (≈ 2.25 µM).

In the test with Helicobacter pylori [1], `CNC(=O)c1cccc(NC(=O)OCc2c(Cl)cccc2Cl)c1` registered an MIC of 0.2 µg/mL (≈ 0.566 µM).

In the test with Helicobacter pylori [1], `CNC(=O)c1cccc(NC(=O)COc2cccc(Cl)c2Cl)c1` gave an MIC of 0.39 µg/mL (≈ 1.1 µM).

In the test with Helicobacter pylori [1], `CNC(=O)c1cccc(NC(=O)Cc2ccccc2)c1` displayed an MIC of 1.56 µg/mL (≈ 5.81 µM).

`CNC(=O)c1cccc(NC(=O)CCc2ccccc2OC)c1`: the MIC with Helicobacter pylori [1] came out at 0.78 µg/mL (≈ 2.5 µM).

Compound `CONC(=O)c1cccc(NC(=O)Cc2cccc(Br)c2)c1` gave an MIC with Helicobacter pylori [1] of 12.5 µg/mL (≈ 34.4 µM).

Compound `CNC(=O)c1cccc(NC(=O)COc2cccc3ccccc23)c1` came in with an MIC with Helicobacter pylori [1] of 0.1 µg/mL (≈ 0.299 µM).

Take `O=C(Cc1cccc(Br)c1)Nc1cccc(C(=O)NO)c1`: in the test on Helicobacter pylori [1], inhibition of growth (MIC) required 12.5 µg/mL (≈ 35.8 µM).

In turn, `CNC(=O)c1cccc(NC(=O)Cc2cccc(OCc3ccccc3)c2)c1` had a minimal inhibitory concentration (MIC) in the test with Helicobacter pylori [1] of 0.78 µg/mL (≈ 2.08 µM).

As to `CNC(=O)c1cccc(NC(=O)Cc2cccc(Cl)c2)c1`, the minimum inhibitory concentration (MIC) in the test on Helicobacter pylori [1] stood at 0.39 µg/mL (≈ 1.29 µM).

The compound `CNC(=O)c1cccc(NC(=O)Cc2ccccc2Cl)c1` yielded an MIC with Helicobacter pylori [1] of 3.12 µg/mL (≈ 10.3 µM).

For `CNC(=O)c1cccc(NC(=O)COc2ccc3ccccc3c2)c1`, in the test on Helicobacter pylori [1], the lowest concentration to inhibit growth (MIC) was 0.39 µg/mL (≈ 1.17 µM).

With `CNC(=O)c1cccc(NC(=O)Cc2cccc3ccccc23)c1`, the MIC against Helicobacter pylori [2] worked out at 0.125 µg/mL (≈ 0.393 µM); in the test with Helicobacter pylori [1], 0.1 µg/mL (≈ 0.314 µM); against Helicobacter pylori [3], 0.125 µg/mL (≈ 0.393 µM); in the test with Helicobacter pylori [4], 0.125 µg/mL (≈ 0.393 µM).

Take `CNC(=O)c1cccc(NC(=O)Cc2csc3ccccc23)c1`: the MIC with Helicobacter pylori [2] worked out at 0.25 µg/mL (≈ 0.771 µM); against Helicobacter pylori [1], 0.1 µg/mL (≈ 0.308 µM); against Helicobacter pylori [3], 0.25 µg/mL (≈ 0.771 µM); against Helicobacter pylori [4], 0.25 µg/mL (≈ 0.771 µM).

`O=C(Cc1cccc(Br)c1)Nc1cccc(C(=O)O)c1` came in with an MIC in the test with Helicobacter pylori [1] above 100 µg/mL.

On to `CNC(=O)c1cccc(NC(=O)Cc2ccc3ccccc3c2)c1`, for which the MIC with Helicobacter pylori [2] was 0.063 µg/mL (≈ 0.198 µM); against Helicobacter pylori [1], 0.05 µg/mL (≈ 0.157 µM); with Helicobacter pylori [3], 0.063 µg/mL (≈ 0.198 µM); in the test on Helicobacter pylori [4], 0.063 µg/mL (≈ 0.198 µM).

For `CNC(=O)c1cccc(NC(=O)COc2ccccc2)c1`, the MIC against Helicobacter pylori [1] worked out at 3.12 µg/mL (≈ 11 µM).

Compound `CNC(=O)c1cccc(NC(=O)Cc2cccc(Br)c2)c1` registered an MIC against Helicobacter pylori [1] of 0.39 µg/mL (≈ 1.12 µM).

Regarding `CCOC(=O)c1cccc(NC(=O)Cc2cccc(Br)c2)c1`, the MIC against Helicobacter pylori [1] is above 100 µg/mL.

The compound `CNC(=O)c1cccc(NC(=O)CC2CCCCC2)c1` yielded an MIC with Helicobacter pylori [1] of 12.5 µg/mL (≈ 45.6 µM).

Turning to `NC(=O)c1cccc(NC(=O)Cc2cccc(Br)c2)c1`, inhibition of growth against Helicobacter pylori [1] (MIC) required 100 µg/mL (≈ 300 µM).

As for `CNC(=O)c1cccc(NC(=O)Cc2ccc3c(c2)OCO3)c1`, inhibition of growth with Helicobacter pylori [1] (MIC) required 0.78 µg/mL (≈ 2.5 µM).

As to `CNC(=O)c1cccc(NC(=O)OCc2cccc3ccccc23)c1`, in the test with Helicobacter pylori [1], inhibition of growth (MIC) required 0.05 µg/mL (≈ 0.15 µM).

`CNC(=O)c1cccc(NC(=O)Cc2cccc(O)c2)c1` returned an MIC in the test on Helicobacter pylori [1] of 6.25 µg/mL (≈ 22 µM).

Take `CNC(=O)c1cccc(NC(=O)OCc2ccc(C)cc2)c1`: in the test with Helicobacter pylori [1], it took 0.1 µg/mL (≈ 0.335 µM) to inhibit growth (MIC).

In the test on Helicobacter pylori [1], `CN(C)C(=O)c1cccc(NC(=O)Cc2cccc(Br)c2)c1` yielded an MIC of 25 µg/mL (≈ 69.2 µM).

Take `CC1(C)S[C@@H]2[C@H](NC(=O)[C@H](N)c3ccc(O)cc3)C(=O)N2[C@H]1C(=O)O` [AMOXICILLIN]: the figures for the MIC against Helicobacter pylori [2], against Helicobacter pylori [3] and with Helicobacter pylori [4] were 0.5 µg/mL (≈ 1.37 µM), 0.031 µg/mL (≈ 0.0848 µM) and 0.125 µg/mL (≈ 0.342 µM), respectively.

Regarding `CC[C@H]1OC(=O)[C@H](C)[C@@H](O[C@H]2C[C@@](C)(OC)[C@@H](O)[C@H](C)O2)[C@H](C)[C@@H](O[C@@H]2O[C@H](C)C[C@H](N(C)C)[C@H]2O)[C@](C)(OC)C[C@@H](C)C(=O)[C@H](C)[C@@H](O)[C@]1(C)O` [CLARITHROMYCIN], the MIC was found to be 2 µg/mL (≈ 2.67 µM) in the test with Helicobacter pylori [2], 0.05 µg/mL (≈ 0.0668 µM) in the test with Helicobacter pylori [1], 0.063 µg/mL (≈ 0.0842 µM) against Helicobacter pylori [3] and 0.5 µg/mL (≈ 0.668 µM) against Helicobacter pylori [4].
